This passage reports Ki, IC50 and EC50 results from patent US11008336B2, “Compounds useful for inhibiting RORγt” (Eli Lilly and Company, priority 2017, dated 2021).

The target of test [1] is human RAR-related orphan receptor alpha (hRORα) (Homo sapiens (Human), UniProt P35398). The test can be described thus: RORα receptor-ligand competition binding assay. Particulars: His-tagged hRORα, [3H]-25-hydroxycholesterol; mean ± standard deviation; read-out: RORa Ki. The method, then:
(§1) His-tagged human RAR-related orphan receptor alpha (hRORα), human RAR-related orphan receptor beta (hRORβ), and human RAR-related orphan receptor gamma (hRORγ) are used for receptor-ligand competition binding assays to determine Ki values. Typical procedures are provided below.
(§2) The final wells contain 20 μg/mL aprotinin and 20 μg/mL leupeptin and 10 μM Pefabloc. Typically, receptor binding assays include radio-labeled ligands, such as 7 nM [^3H]-25-hydroxycholesterol for alpha binding, 20 nM [^3H]-3-[[4-[[3-(2,6-dichlorophenyl)-5-isopropyl-isoxazol-4-yl]methoxy]-N,2-dimethyl-anilino]methyl]benzoic acid for beta binding, and 6 nM [3H]-25-hydroxycholesterol for gamma binding, and 0.5 μg RORα receptor, 0.03 μg RORβ receptor, or 0.13 μg RORγ receptor per well. Assays are typically run in 96-well format. […] Plates are mixed for 30 minutes on an orbital shaker at room temperature. After an incubation of 4 hours, plates are read in a Wallac MICROBETA® counter.
(§3) The data are used to calculate an estimated IC50 using a four parameter logistic fit. The Kd for [^3H]-25-hydroxycholesterol for RORa and RORg, and [^3H]-3-[[4-[[3-(2,6-dichlorophenyl)-5-isopropyl-isoxazol-4-yl]methoxy]-N,2-dimethyl-anilino]methyl]benzoic acid for RORb binding, is determined by saturation binding. The IC50 values for compounds are converted to Ki using the Cheng-Prushoff equation.

Test [2] deals with human RAR-related orphan receptor beta (hRORβ) (Homo sapiens (Human), UniProt Q92753). The test can be described thus: RORβ receptor-ligand competition binding assay. Conditions: His-tagged hRORβ; mean ± standard deviation; read-out: RORb Ki. The method, then:
as §1, §2, §3

Test [3] addresses human RAR-related orphan receptor gamma (hRORγ) (Homo sapiens (Human), UniProt P51449). In words: RORγ receptor-ligand competition binding assay. Particulars: His-tagged hRORγ, [3H]-25-hydroxycholesterol; mean ± standard deviation; read-out: RORg Ki. The method, then:
as §1, §2, §3

The target in test [4] is human RORg ligand binding domain fused to yeast GAL4 DNA binding domain (Homo sapiens (Human), UniProt P51449). In words: HEK293 RORg GAL4 receptor-reporter assay. In kind it is cell-based. Conditions: HEK293 cells, RORg-GAL4/pGL4.31 luciferase, 18 hours; mean ± standard deviation; read-out: hIC50.
Chain of human RORg ligand binding domain fused to yeast GAL4 DNA binding domain (P51449 269-508): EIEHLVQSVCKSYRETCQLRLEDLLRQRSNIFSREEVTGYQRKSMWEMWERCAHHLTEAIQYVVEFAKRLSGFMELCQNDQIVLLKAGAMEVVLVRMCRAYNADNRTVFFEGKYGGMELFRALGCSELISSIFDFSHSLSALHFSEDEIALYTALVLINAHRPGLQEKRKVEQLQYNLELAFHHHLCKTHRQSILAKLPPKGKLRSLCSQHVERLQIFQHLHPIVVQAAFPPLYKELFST
Test [5] relates to anti-CD3/anti-CD28/IL-23 stimulated IL-17 secretion in PBMC's. The test can be described thus: PBMC IL-17 secretion ELISA. Format: cell-based. Particulars: Homo sapiens, anti-CD3/anti-CD28/IL-23 stimulation, 48 hours, mean ± standard deviation, read-out: hPBMC IL-17 ELISA (EC50). As for the experimental part:
PBMC's are isolated from whole blood buffy coats by first combining fresh buffy coats with equal volumes of phosphate buffered saline. Thirty five mL of PBS/buffy coat solution are then gently overlaid onto 15 mL of Ficoll in 50 mL conical tubes. Following centrifugation for 30 minutes at 500×g (with slow acceleration and deceleration) the top layer of plasma is discarded and the layer of cells along the Ficoll interface is collected and pooled. Each 250 mL tube is filled to the top with room temperature RPMI-1640 media. Tubes are spun for 10 minutes at 500×G (with slow acceleration and deceleration), the media is removed by aspiration, and the wash step is repeated. Cells are resuspended in ice cold Recovery Cell Culture Freezing Medium from Life Technologies (Catalog number 12648-010) on ice. The cell concentration is adjusted to 66.7 million cells/mL. Cell are slow frozen at −1° C./minute in vials with 100 million cells and stored in liquid nitrogen.
PBMC are brought out of thaw by resuspending with 1 mL of complete media (RPMI-1640 containing 30 mM HEPES, 100 units/mL penicillin, 100 μg/mL streptomycin, 3.25 mM L-Glutamine, 0.2 μM beta-mercaptoethanol, and 10% FBS) followed by the drop wise addition of 2 mL, 4 mL, 8 mL, and 16 mL of complete media with gentle swirling. Cells are spun down for 5 minutes and the cell pellet is resuspended in complete media. Clumps of cells are broken up by running the cell solution through a 23 gauge syringe needle and a […] cell strainer. One hundred thousand cells per well are added to 384 well polystyrene tissue culture treated flat bottomed plates in a total of 30 μL. Stimulation cocktail containing anti-human CD3 antibody, anti-human CD28 antibody, IL-23 and compounds prepared in complete media are added to the cells simultaneously in a total volume of 30 μL. The final concentration of added stimulants is 160 ng/mL, 500 ng/mL, and 5 ng/mL for anti-CD3 antibody, anti-CD28 antibody, and IL-23 respectively and 0.3% for DMSO. Plates are sealed with AERASEAL® sealing film and incubated for 48 hours at 37° C., 95% humidity, and 5% CO2.
Following the incubation period, the plates are spun at 200×g for five minutes. Supernatants are diluted 1:1 with equal volume 1% BSA/PBS and tested for IL-17 with a human IL-17 ELISA kit from R&D system (catalog #D317E) according to the protocol provided with the kit with one exception—the colorimetric substrate OPD (o-phenylenediamine dihydrochloride, Sigma Cat #P6912) is used instead of the substrate supplied in the kit. Absorbance at 492 nm is measured with the Envision multi-label plate reader. A492 values are converted to concentration of IL-17 based on the IL-17 standard curve as shown below: pg/mL IL-17=EC50*[[(Top-Bottom)/(A492-Bottom)]-1](1/-Hill). IC50's for inhibition of IL-17 secretion is calculated based on converted values using a standard 4-parameter fit with maximum inhibition determined from the average values of wells with no added stimulants nor compounds and minimum inhibition from the average values of wells with stimulants alone and no added compound.

Test [6] relates to PBMC. The test can be described thus: cells. In kind it is cell-based. Conditions: Homo sapiens, 48 h, read-out: Cell TiterGlo Viability (EC50, μM). As for the experimental part: PBMC's are isolated from whole blood buffy coats by first combining fresh buffy coats with equal volumes of phosphate buffered saline. Thirty five mL of PBS/buffy coat solution are then gently overlaid onto 15 mL of Ficoll in 50 mL conical tubes. Following centrifugation for 30 minutes at 500×g (with slow acceleration and deceleration) the top layer of plasma is discarded and the layer of cells along the Ficoll interface is collected and pooled. […] Tubes are spun for 10 minutes at 500×G (with slow acceleration and deceleration), the media is removed by aspiration, and the wash step is repeated.
Cells are spun down for 5 minutes and the cell pellet is resuspended in complete media. Clumps of cells are broken up by running the cell solution through a 23 gauge syringe needle and a 40 μM cell strainer.
Equal volumes of Cell TITERGLO® cell viability testing reagent (Promega Cat #G7573) are added to the cells remaining in the plates, and following a fifteen minute incubation with gentle shaking at room temperature luminescence is measured with the Envision multi-label plate reader. Percent cell death is calculated by setting 100% activity (cell death) to zero luminescence units and minimum activity (max number of viable cells) as the average luminescence units of wells containing stimulants alone and no added compound. IC50's are calculated using a standard four parameter fit.

Chain of human RAR-related orphan receptor beta (hRORβ) (Q92753 whole entry): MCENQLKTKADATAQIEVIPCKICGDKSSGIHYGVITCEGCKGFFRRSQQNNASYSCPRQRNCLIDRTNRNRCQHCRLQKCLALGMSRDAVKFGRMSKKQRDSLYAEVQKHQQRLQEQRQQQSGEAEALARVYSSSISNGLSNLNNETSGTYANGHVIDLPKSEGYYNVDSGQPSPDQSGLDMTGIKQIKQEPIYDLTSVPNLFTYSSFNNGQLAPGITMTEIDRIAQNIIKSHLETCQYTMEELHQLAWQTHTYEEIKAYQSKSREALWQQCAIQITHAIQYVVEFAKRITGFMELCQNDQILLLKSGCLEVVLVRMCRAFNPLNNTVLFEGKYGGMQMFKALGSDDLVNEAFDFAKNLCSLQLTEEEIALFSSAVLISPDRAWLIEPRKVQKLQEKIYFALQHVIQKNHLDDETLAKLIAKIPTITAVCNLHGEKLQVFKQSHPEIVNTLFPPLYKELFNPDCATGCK
Chain of human RAR-related orphan receptor gamma (hRORγ) (P51449 whole entry): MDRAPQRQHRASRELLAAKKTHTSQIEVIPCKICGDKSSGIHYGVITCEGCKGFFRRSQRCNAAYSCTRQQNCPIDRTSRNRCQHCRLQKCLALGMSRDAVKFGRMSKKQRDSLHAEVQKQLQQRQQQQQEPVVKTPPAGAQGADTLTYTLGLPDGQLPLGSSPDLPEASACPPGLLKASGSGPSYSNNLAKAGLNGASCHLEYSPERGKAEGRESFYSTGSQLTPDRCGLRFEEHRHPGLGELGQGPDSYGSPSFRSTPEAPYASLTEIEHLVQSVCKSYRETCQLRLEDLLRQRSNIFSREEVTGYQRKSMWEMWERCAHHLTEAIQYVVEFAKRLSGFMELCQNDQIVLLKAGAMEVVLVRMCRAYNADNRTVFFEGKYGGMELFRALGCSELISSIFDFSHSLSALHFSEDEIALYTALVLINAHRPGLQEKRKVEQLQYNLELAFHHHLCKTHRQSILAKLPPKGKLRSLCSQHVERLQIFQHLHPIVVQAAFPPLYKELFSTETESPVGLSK
Chain of human RAR-related orphan receptor alpha (hRORα) (P35398 whole entry): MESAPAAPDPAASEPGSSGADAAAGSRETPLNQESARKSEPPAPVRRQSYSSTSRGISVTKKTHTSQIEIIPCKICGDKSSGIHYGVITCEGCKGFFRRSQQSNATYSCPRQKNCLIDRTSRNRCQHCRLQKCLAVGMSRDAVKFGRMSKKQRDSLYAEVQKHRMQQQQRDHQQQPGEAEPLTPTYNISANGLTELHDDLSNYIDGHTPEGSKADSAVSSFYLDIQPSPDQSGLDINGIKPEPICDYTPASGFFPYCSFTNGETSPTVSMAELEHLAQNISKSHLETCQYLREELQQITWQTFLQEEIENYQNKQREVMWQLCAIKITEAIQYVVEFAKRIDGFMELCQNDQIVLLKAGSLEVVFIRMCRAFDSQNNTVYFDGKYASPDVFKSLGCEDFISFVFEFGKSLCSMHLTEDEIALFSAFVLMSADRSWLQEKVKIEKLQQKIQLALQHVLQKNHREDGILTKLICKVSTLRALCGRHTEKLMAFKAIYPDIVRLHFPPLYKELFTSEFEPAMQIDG

With `CCS(=O)(=O)c1ccc(CNC(=O)c2cc3c(s2)C2(CCN(C(C)c4ccc(C(F)(F)F)nc4)CC2)OC(C)C3)cc1` (single isomer, unassigned; isomer 2) [Example 42, N-[4-(Ethylsulfonyl)benzyl]-5′-methyl-1-{1-[6-(trifluoromethyl)pyridin-3-yl]ethyl}-4′,5′-dihydrospiro[piperidine-4,7′-thieno[2,3-c]pyran]-2′-carboxamide isomer 2], the Ki in test [1] is above 20.4 µM; in test [2], above 12.5 µM; in test [3], 4.42 ± 2.7 nM. The IC50 in test [4] was determined as 19.9 ± 10.7 nM. Also, the results for the EC50 in test [5] and in test [6] were 8.3 ± 3.8 nM and above 1 µM, respectively.
